Data on two compounds can be found in ChEMBL document CHEMBL3822369, “Structure-Based Design of an in Vivo Active Selective BRD9 Inhibitor” (J Med Chem, 2016).

Bounds are passed on as bounds.

Data set [1] in a line: Aqueous solubility of the compound at pH 6.8 by UPLC/UV method. The format is physicochemical. The following applies: buffer.
The nature of data set [2]: Apparent permeability in human Caco2 cells across apical side to basolateral side at 10 uM by LC-MS/MS analysis. The following applies: Caco-2. The format is ADME, cell-based.
Data set [3] concerns Mus musculus. Kind of data set: Clearance in BomTac:NMRI-Foxn1nu mouse plasma at 5 mg/kg, iv administered as bolus. The format is ADME, organism-based. The conditions noted are these: in vivo.
Data set [4] is described as follows: Volume of distribution at steady state in BomTac:NMRI-Foxn1nu mouse plasma at 5 mg/kg, iv administered as bolus. The format is ADME, organism-based. The conditions noted are these: read-out: Vdss.
A short description of data set [5]: AUC (0 to last) in BomTac:NMRI-Foxn1nu mouse at 20 mg/kg, po administered as suspension. The format is ADME, organism-based. Details: dose 20 mg/kg, time 0 - last, route oral. The conditions noted are these: in vivo.
Data set [6] can be described thus: Cmax in BomTac:NMRI-Foxn1nu mouse at 20 mg/kg, po administered as suspension. The format is ADME, organism-based. Details: dose 20 mg/kg, route oral. The conditions noted are these: in vivo.
Data set [7] can be described thus: Oral bioavailability in BomTac:NMRI-Foxn1nu mouse at 20 mg/kg, administered as suspension. The format is ADME, organism-based. The conditions noted are these: in vivo.
Data set [8] is described as follows: AUC (0 to last) in BomTac:NMRI-Foxn1nu mouse at 180 mg/kg, po administered as suspension. The format is ADME, organism-based. Details: dose 180 mg/kg, time 0 - last, route oral. The conditions noted are these: in vivo.
Data set [9] in a line: Cmax in BomTac:NMRI-Foxn1nu mouse at 180 mg/kg, po administered as suspension. Details: dose 180 mg/kg, route oral. The conditions noted are these: in vivo. The format is ADME, organism-based.
In data set [10] the test system is Mus musculus. Description: (§1) Oral bioavailability in BomTac:NMRI-Foxn1nu mouse at 180 mg/kg, administered as suspension. The format is ADME, organism-based. The following applies: in vivo.
Data set [11] has as its system Mus musculus. Kind of data set: AUC (0 to last) in plasma of CIEA-NOG mouse xenografted with human EOL-1 cells at 180 mg/kg, po administered qd for day 5 to 17 and day 20 to 22 post tumor transplantation. The format is ADME, organism-based, EOL1. Details: dose 180 mg/kg, time 0 - last, route oral. The conditions noted are these: in vivo.
Data set [12] can be described thus: as §1. The format is ADME, organism-based. The conditions noted are these: BomTac:NMRI-Foxn1nu, in vivo.

One may read the solubility as the dissolved amount per volume that the medium holds. Low readings indicate a poorly soluble substance, high ones a readily soluble substance. For orientation: Papp A→B means the apparent permeability from the apical to the basolateral side of a cell layer. Usually AUC(0-t) stands for the area under the concentration-time curve up to a stated or last time point. A lower AUC(0-t) goes with less exposure. As a reminder, the Cmax is the highest concentration seen after dosing. As a reminder, the bioavailability is dose-corrected exposure relative to a reference, in per cent. Read a high bioavailability as much systemic uptake.

Regarding `COc1cc(-c2cn(C)c(=O)c3cnccc23)c(OC)cc1CN(C)C`, the solubility in data set [1] was over 90 µg/mL. Further, the apical-to-basolateral permeability (Papp A→B) at 10 µM in [2] was determined as 11 ×10⁻⁶ cm/s. The CL with Mus musculus [3] stood at 65%. Moreover, the Vd in data set [4] is 2.1 L/kg. Moreover, the values for the AUC(0-t) in [5] and in data set [8] were 15 µM·h and 226 µM·h, respectively. The Cmax in [6] turned out to be 5.4 µM; in data set [9], 35 µM. In addition, in data set [7], the bioavailability was 88%. The F in the data set with Mus musculus [10] is given as 151%. The compound further returned an AUClast with Mus musculus [11] of 268 µM·h.

For the compound `COc1cc(-c2cn(C)c(=O)c3cnccc23)cc(OC)c1CN(C)C`, in data set [1], the solubility was over 91 µg/mL. Besides, the Papp A→B at 10 µM in data set [2] is 1.4 ×10⁻⁶ cm/s. Moreover, the CL in the data set with Mus musculus [3] is recorded as 57%. In addition, the Vd in data set [4] amounted to 1.6 L/kg. The AUC(0-t) in [5] worked out at 7.5 µM·h; in [8] it was 108 µM·h. Also, the values for the Cmax in data set [6] and in data set [9] were 3 µM and 25 µM, respectively. Also, the results for the bioavailability in [7] and in [12] were 39% and 64%, respectively.
